Data reported in patent US20210179577A1, “AROMATIC SULFONAMIDE DERIVATIVES FOR THE TREATMENT OF ISCHEMIC STROKE” (Bayer Aktiengesellschaft, priority 2017, published 2021).

Tests used:
[1] = biological target: T1, hP2X4 (Homo sapiens, UniProt Q99571); experiment: Human P2X4 HEK Cell Electrophysiology Assay B (QPatch); assay type: cell-based; conditions: ATP 5 microM, -90 mV; read-out: Human P2X4 HEK Cells (QPatch Electrophysiology) avg IC50
T1 construct: expressed in transfected cells; host or cells: HEK-293 mito-Photina, clone 2a/4
T1 sequence (Q99571 1-388): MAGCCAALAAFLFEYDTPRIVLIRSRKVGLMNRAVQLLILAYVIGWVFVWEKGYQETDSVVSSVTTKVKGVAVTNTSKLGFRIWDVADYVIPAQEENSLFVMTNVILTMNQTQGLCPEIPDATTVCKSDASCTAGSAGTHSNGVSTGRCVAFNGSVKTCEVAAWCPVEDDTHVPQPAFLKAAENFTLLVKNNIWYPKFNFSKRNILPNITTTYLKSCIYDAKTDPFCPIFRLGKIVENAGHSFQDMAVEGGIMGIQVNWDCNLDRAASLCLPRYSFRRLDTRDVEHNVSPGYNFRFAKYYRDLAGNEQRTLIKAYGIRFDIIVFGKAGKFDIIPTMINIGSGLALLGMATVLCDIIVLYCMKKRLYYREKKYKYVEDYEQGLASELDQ
Experimental: Cell culture conditions: HEK-293 mito-Photina pcDNA3(neo-)/pPURO N/pcDNA3_P2RX4, clone 2a/4 (HEK-293 mito-Photina/hP2RX4) cells were cultured in EMEM Minimum Essential Medium Eagle with Earl's salts Balanced Salt Solution (BioWhittaker cat. BE12-125F) supplemented with 5 mL of 200 mM Ultraglutaminel (BioWhittaker cat. BE17-605E/U1), 5 mL of 100× Penicillin/Streptomycin (BioWhittaker cat. DE17-602E; final concentration 1%), 4 mL of 50 mg/mL G418 (Sigma cat. G8168-100 mL; final concentration 400 μg/mL), 10 μL of 10 mg/mL Puromicin (InvivoGen cat. ant-pr-1; final concentration 0.2 μg/mL) and 50 mL of Fetal Bovine Serum (Sigma cat. F7524; final concentration 10%).
Experimentalprotocol: HEK-293 cell lines are seeded 72 or 96 hours before experiment, at a concentration of 5 or 2.5 million cells, respectively onto a T225 flask. Just before the experiments cells are washed twice with D-PBS w/o Ca2+/Mg2+(Euroclone cat. ECB4004L) and detached from the flask with trypsin-EDTA (Sigma, cat. T4174 diluted 1/10). Cells are then re-suspended in the suspension solution: 25 mL EX-CELL ACF CHO medium (Sigma, cat. C5467); 0.625 mL HEPES (BioWhittaker, cat. BE17-737E); 0.25 mL of 100× Penicillin/Streptomycin (BioWhittaker, cat. DE17-602E), 0.1 mL of Soybean Trypsin Inhibitor 10 mg/mL (Sigma, cat. T6522) and placed on the QPatch 16X.
Compound preparation and storage: Compound stock solutions (10 mM; 100% DMSO; stored at −20° C.) were used. Fresh solutions from stock (1 or 3 mM, 100% DMSO) were prepared just before the experiments (0.1% final DMSO concentration).
Patch clamp analysis with QPatch16X (FIG. 1): Standard whole-cell voltage clamp experiments are performed at room temperature using the multihole technology.
For the voltage clamp experiments on hP2X4, data are sampled at 2 KHz. After establishment of the seal and the passage in the whole cell configuration, the cells are held at −90 mV and the hP2X4 current is evoked by the agonist in the absence (vehicle period, i.e. 0.1% DMSO) or in the presence of the compound under investigation at increasing concentrations; see the application protocol in FIG. 1.
Output: the maximum inward current induced by the agonist (ATP 5 microM).
The intracellular solution contained (mM) 135 CsF, 10 NaCl, 1 EGTA, 10 HEPES (pH 7.2 with CsOH) whereas the extracellular solution (mM) 145 NaCl, 4 KCl, 0.5 MgCl2, 1 CaCl2, […], 10 Glucose (pH 7.4 with NaOH).
For data collection, the Sophion software was used and the analysis was performed off-line using Excel and GraphPad Prism.
When possible, i.e. when the % of inhibition with the highest concentration tested was more than 50%, the dose-response curves data were fitted with the following equation:
[X is log of concentration; Y is normalized response (100% down to 0%, decreasing as X increases); Log IC50 same log units as X; HillSlope is unitless slope factor or hill slope]

[2] = biological target: T2, human P2X4 (Homo sapiens, UniProt Q99571); experiment: Human P2X4 HEK Cell FLIPR Assay; assay type: cell-based; design: expressed in transfected cells; host or cells: HEK293; conditions: HEK293 cells, agonist Bz-ATP at EC80
T2 sequence (Q99571 1-388): T1 sequence (Q99571 1-388)
Experimental: HEK293 cells stably expressing human P2X4 were plated in poly-D-lysine-coated 384-well plates at a seeding density of 30000 cells/well and incubated overnight. P2X4 function was assessed by measuring intracellular calcium changes using the calcium-chelating dye Fluo8-AM (Molecular Devices) on a fluorescent imaging plate reader (FLEX/FLIPR station; Molecular Devices). On the day of the assay, the medium was removed and the cells were incubated for 30 min at 37° C. and 5% CO2 in 30 μL of dye buffer (Hank's balanced salt solution, 10 mM HEPES, 1.8 mM CaCl2, 1 mM MgCl2, 2 mM probenecid, 5 mM D-glucose monohydrate, 5 μM Fluo8-AM, pH=7.4). Compounds diluted in probenecid buffer (Hank's balanced salt solution, 10 mM HEPES, 1.8 mM CaCl2, 1 mM MgCl2, 2 mM probenecid, 5 mM D-glucose monohydrate, pH=7.4) were added in a volume of 10 μL and allowed to incubate for 30 min at room temperature. The final assay DMSO concentration was 0.5%. The agonist, Bz-ATP (Tocris), was added in a volume of 10 μL at a concentration representing the EC80 value. The EC80 value of Bz-ATP was determined each assay day prior to compound profiling. The fluorescence was measured for an interval of 120 sec at 2 sec intervals. The excitation and emission wavelengths used to monitor fluorescence were 470-495 nm and 515-575 nm, respectively. The data was analyzed based on the increase in peak relative fluorescence units (RFU) compared to the basal fluorescence and the data was normalized to the agonist control. The compounds were tested in triplicates per plate and mean values were plotted in Excel XL-Fit to determine IC50 values, percentage of maximal inhibition and the Hill coefficients.

Row | SMILES | IC50 [1] [nM] | IC50 [2] [nM]
1 | NS(=O)(=O)c1cc(NC(=O)Cc2ccccc2Cl)ccc1-n1cc(C(F)(F)F)cn1 [Example 19, 2-(2-Chlorophenyl)-N-{3-sulfamoyl-4-[4-(trifluoromethyl)-1H-pyrazol-1-yl]phenyl}acetamide] | 278 | 47
2 | NS(=O)(=O)c1cc(NC(=O)Cc2ccccc2Cl)ccc1-n1cc(F)cn1 [Example 26, 2-(2-Chlorophenyl)-N-[4-(4-fluoro-1H-pyrazol-1-yl)-3-sulfamoylphenyl]acetamide] | 222 | 27
3 | NS(=O)(=O)c1cc(NC(=O)Cc2ccccc2Cl)cnc1-n1cc(C(F)(F)F)cn1 [Example 380, 2-(2-Chlorophenyl)-N-{5-sulfamoyl-6-[4-(trifluoromethyl)-1H-pyrazol-1-yl]pyridin-3-yl}acetamide] | 157 | 299

Further molecules by falling IC50 [2], results first:

Row | IC50 [1] [nM] | IC50 [2] [nM] | SMILES
4 |  | 32 | N#Cc1cnn(-c2ccc(NC(=O)Cc3ccccc3Cl)cc2S(N)(=O)=O)c1 [Example 39, 2-(2-Chlorophenyl)-N-[4-(4-cyano-1H-pyrazol-1-yl)-3-sulfamoylphenyl]acetamide]
5 | 51 | 17 | NS(=O)(=O)c1cc(NC(=O)Cc2ccccc2Cl)ccc1-c1cnn(C(F)F)c1 [Example 326, 2-(2-Chlorophenyl)-N-{4-[1-(difluoromethyl)-1H-pyrazol-4-yl]-3-sulfamoylphenyl}acetamide]
